Results on seven molecules are retold here after BindingDB's records for PubMed 3702863 (R. J. Reynolds Tobacco, 1986).

Broadly, the Ki is the equilibrium dissociation constant of an inhibitor or competing ligand from its target. Lower therefore signals tighter binding.

Chain of Nicotinic acetylcholine receptor (Q62594 whole entry): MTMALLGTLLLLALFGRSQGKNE

This assay addresses Nicotinic acetylcholine receptor (Rattus leucopus, UniProt Q62594).
The molecule `COc1cc(CC(C)N)cc(OC)c1OC` (configuration not stated) returned a Ki of 0.375 µM.
The same measure for `C=C(C=O)C[C@H]1C[C@H](O)[C@]2(C)O[C@@H]3C[C@@H]4O[C@@H]5C[C@]6(C)O[C@]7(C)CC[C@@H]8O[C@@H]9C[C@]%10(C)O[C@@H]%11C(C)=CC(=O)O[C@H]%11C[C@H]%10O[C@H]9C[C@@H](C)[C@H]8O[C@H]7C[C@H]6O[C@@]5(C)C/C=C\[C@H]4O[C@H]3C[C@H]2O1`: > 10 µM; for `CN1C(=O)CCC1c1cccnc1` (configuration not stated) [CAS_21906]: 5 µM.
The same measure for `C[N+](C)(C)CCCCCCCCCC[N+](C)(C)C` [Decamethonium Iodide]: 3.13 µM; for `C[N+](C)(C)CCCCCC[N+](C)(C)C` [Hexamethoniumdibromide]: > 10 µM; for `CN1[C@@H](C[C@@H](O)c2ccccc2)CCC[C@H]1CC(=O)c1ccccc1` [Lobeline]: 0.009 µM.
The same measure for `COc1cc2c3cc1Oc1cc(ccc1O)C[C@@H]1c4c(cc(OC)c(O)c4Oc4ccc(cc4)C[C@@H]3N(C)CC2)CC[N+]1(C)C` [Tubocurarine,d]: > 10 µM.
